Cc1cc(N)n(-c2ccccc2)n1
solubility (mole fraction)
Details	in 2-butanone	in acetonitrile	in ethanol	in isopropanol	in methanol	in n-propanol
283.15 K	0.0482	0.124	0.0766	0.056	0.0852	0.0705
285.65 K	0.0511	0.13	0.0811	0.0593	0.089	0.0749
288.15 K	0.0546	0.137	0.0854	0.0632	0.0938	0.0795
290.65 K	0.0581	0.144	0.0903	0.0672	0.0988	0.0839
293.15 K	0.0618	0.15	0.0955	0.0711	0.104	0.0889
295.65 K	0.0653	0.157	0.101	0.0755	0.109	0.0946
298.15 K	0.0694	0.164	0.107	0.0802	0.115	0.0997
300.65 K	0.0736	0.172	0.113	0.0851	0.121	0.105
303.15 K	0.0784	0.18	0.119	0.0906	0.127	0.112
305.65 K	0.0829	0.189	0.126	0.0957	0.134	0.118
308.15 K	0.0881	0.198	0.132	0.102	0.14	0.125
310.65 K	0.0931	0.206	0.139	0.108	0.147	0.132
313.15 K	0.0989	0.216	0.147	0.114	0.154	0.139
315.65 K	0.105	0.226	0.154	0.121	0.162	0.147
318.15 K	0.111	0.236	0.163	0.129	0.171	0.155

Source: BigSolDB 2.1
